{"source": "patent US20050175535A1", "about": "(CV Therapeutics, Inc., priority 2000, published 2005)", "key": {"[1]": {"assay": "Coronary and peripheral artery blood flow velocity, HR and MAP in anesthetized closed-chest dogs", "type": "in vivo", "parameters": "APV: unit not given here", "settings": "for APV / MAP / HR: Ado (200 or 300 ug/kg); for Coronary, maximal folds increase in average peak velocity (APVmax/APVbaseline) / Peripheral, maximal folds increase in average peak velocity (APVmax/APVbaseline): iv injection of CVT-3146 (1 μg/kg) and adenosine (200 or 300 μg/kg)", "procedure": "Mongrel dogs (either sex, 17-21 kg; n=6) were obtained from a local vendor (Barton, Oxford, N.J.). Blood flow velocity in the coronary and cranial circumflex arteries was measured using Doppler transducer-tipped guide wires 0.014″ in diameter (FloWire®, model 1400J) purchased from Cardiometrics, Inc., Mountain View, Calif. For the positioning of the FloWire, a Judkins left coronary guiding catheter (JL3.5, 8F; Cordis) was used. Vascular arterial angiography was performed using Hypaque-76 contrast fluid (Bracco Diagnostics, Inc., Princeton, N.J.; Lot #9H28899) and a mobile fluoroscopic unit (Philips, BV 29). Systemic arterial blood pressure was measured using an electronic transducer-tipped catheter (Millar).\nFollowing the administration of heparin (20 U/kg+100 U/hr), the pressure transducer-tipped catheter was introduced through the left femoral artery and positioned in the descending aorta. The Doppler FloWire was introduced through the right femoral artery. A peripheral vein was cannulated for the administration of all drugs. […] The sequence of positioning of the Doppler catheter was reversed in consecutive experiments. […] All parameters were allowed to recover (>30 min) to their respective baseline values between two consecutive drug administrations. […] The effect of adenosine on both coronary and peripheral artery APV was studied in five of the six dogs.\nThe following parameters were monitored and recorded: Average peak coronary and peripheral artery blood flow velocity (APV), mean arterial blood pressure (MAP) (mmHg), and sinus cycle length (SCL; msec). Differences in measure parameters were tested for statistical significance using ANOVA and Student's t test corrected for multiple measurements. Data are expressed as the mean±SEM."}, "[2]": {"tested_on": "rat isolated perfused heart", "assay": "Reversal time of coronary vasodilation in rat isolated perfused hearts;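 for t0.5, time to 50% reversal of the increase in coronary conductance: each agonist bolused at its minimal concentration giving equal maximal coronary conductance rise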;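 for t0.9, time to 90% reversal of the increase in coronary conductance: each agonist bolused at its minimal concentration giving equal maximal coronary conductance rise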", "settings": "bolus", "procedure": "FIG. 10. Reversal of effect of agonist stimulation on CC. […] CC was measured at 8, 16 and 24 minutes after administration (FIG. 10A). […] R and N are the correlation coefficient and number of agonists, respectively.\nThe relationship between the affinity of agonists for the A2A receptor and the rate of reversal of agonist-mediated responses (coronary vasodilation in heart and cAMP accumulation in PC12 cells) upon termination of drug administration were determined. […] The duration of the coronary vasodilation in isolated rat hearts caused by adenosine, the CVT compounds, and other agonists measured as the time to 50% and 90% (t0.5 and t0.9, respectively) reversal of the increases in coronary conductance after termination of drug administration are summarized in Table 4."}, "[3]": {"settings": "CVT-3146 1 μg/kg, adenosine 200 or 300 μg/kg iv bolus, anesthetized dogs"}, "[4]": {"settings": "anesthetized dogs, listed as adenosine"}}}
{"smiles": "Nc1ncnc2c1ncn2[C@@H]1O[C@H](CO)[C@@H](O)[C@H]1O", "note": "[Adenosine, adenosine, reference compound]", "values": [{"measurement": "APV", "setting": "[1]; Coronary, time 1′, Baseline 42 ± 5", "result": "39 ± 8"}, {"measurement": "MAP", "setting": "[1]; Coronary, time 1′, Baseline […] ± 6", "result": "113 ± 6", "unit": "mmHg"}, {"measurement": "HR", "setting": "[1]; Coronary, time 1′, Baseline 170 ± 10", "result": "175 ± 5"}, {"measurement": "APV", "setting": "[1]; Coronary, time 1.5′, Baseline 42 ± 5", "result": "55 ± 8"}, {"measurement": "MAP", "setting": "[1]; Coronary, time 1.5′, Baseline […] ± 6", "result": "117 ± 6", "unit": "mmHg"}, {"measurement": "HR", "setting": "[1]; Coronary, time 1.5′, Baseline 170 ± 10", "result": "171 ± 5"}, {"measurement": "APV", "setting": "[1]; Coronary, time 2′, Baseline 42 ± 5", "result": "52 ± 7"}, {"measurement": "MAP", "setting": "[1]; Coronary, time 2′, Baseline […] ± 6", "result": "120 ± 6", "unit": "mmHg"}, {"measurement": "HR", "setting": "[1]; Coronary, time 2′, Baseline 170 ± 10", "result": "170 ± 5"}, {"measurement": "APV", "setting": "[1]; Coronary, time 3′, Baseline 42 ± 5", "result": "49 ± 6"}, {"measurement": "MAP", "setting": "[1]; Coronary, time 3′, Baseline […] ± 6", "result": "125 ± 6", "unit": "mmHg"}, {"measurement": "HR", "setting": "[1]; Coronary, time 3′, Baseline 170 ± 10", "result": "168 ± 8"}, {"measurement": "APV", "setting": "[1]; Coronary, time 4′, Baseline 42 ± 5", "result": "47 ± 6"}, {"measurement": "MAP", "setting": "[1]; Coronary, time 4′, Baseline […] ± 6", "result": "126 ± 6", "unit": "mmHg"}, {"measurement": "HR", "setting": "[1]; Coronary, time 4′, Baseline 170 ± 10", "result": "164 ± 10"}, {"measurement": "APV", "setting": "[1]; Coronary, time 5′, Baseline 42 ± 5", "result": "47 ± 6"}, {"measurement": "MAP", "setting": "[1]; Coronary, time 5′, Baseline […] ± 6", "result": "128 ± 6", "unit": "mmHg"}, {"measurement": "HR", "setting": "[1]; Coronary, time 5′, Baseline 170 ± 10", "result": "163 ± 10"}, {"measurement": "APV", "setting": "[1]; Coronary, time 10″, Baseline 42 ± 5", "result": "90 ± 10"}, {"measurement": "MAP", "setting": "[1]; Coronary, time 10″, Baseline […] ± 6", "result": "126 ± 8", "unit": "mmHg"}, {"measurement": "HR", "setting": "[1]; Coronary, time 10″, Baseline 170 ± 10", "result": "174 ± 7"}, {"measurement": "APV", "setting": "[1]; Coronary, time 20″, Baseline 42 ± 5", "result": "85 ± 10"}, {"measurement": "MAP", "setting": "[1]; Coronary, time 20″, Baseline […] ± 6", "result": "90 ± 9", "unit": "mmHg"}, {"measurement": "HR", "setting": "[1]; Coronary, time 20″, Baseline 170 ± 10", "result": "166 ± 11"}, {"measurement": "APV", "setting": "[1]; Coronary, time 30″, Baseline 42 ± 5", "result": "75 ± 9"}, {"measurement": "MAP", "setting": "[1]; Coronary, time 30″, Baseline […] ± 6", "result": "107 ± 9", "unit": "mmHg"}, {"measurement": "HR", "setting": "[1]; Coronary, time 30″, Baseline 170 ± 10", "result": "173 ± 6"}, {"measurement": "APV", "setting": "[1]; Peripheral, time 1′, Baseline 33 ± 3", "result": "44 ± 7"}, {"measurement": "MAP", "setting": "[1]; Peripheral, time 1′, Baseline 118 ± 8", "result": "105 ± 6", "unit": "mmHg"}, {"measurement": "HR", "setting": "[1]; Peripheral, time 1′, Baseline 165 ± 10", "result": "171 ± 6"}, {"measurement": "APV", "setting": "[1]; Peripheral, time 1.5′, Baseline 33 ± 3", "result": "38 ± 4"}, {"measurement": "MAP", "setting": "[1]; Peripheral, time 1.5′, Baseline 118 ± 8", "result": "106 ± 7", "unit": "mmHg"}, {"measurement": "HR", "setting": "[1]; Peripheral, time 1.5′, Baseline 165 ± 10", "result": "171 ± 6"}, {"measurement": "APV", "setting": "[1]; Peripheral, time 2′, Baseline 33 ± 3", "result": "35 ± 3"}, {"measurement": "MAP", "setting": "[1]; Peripheral, time 2′, Baseline 118 ± 8", "result": "110 ± 6", "unit": "mmHg"}, {"measurement": "HR", "setting": "[1]; Peripheral, time 2′, Baseline 165 ± 10", "result": "169 ± 6"}, {"measurement": "APV", "setting": "[1]; Peripheral, time 3′, Baseline 33 ± 3", "result": "33 ± 3"}, {"measurement": "MAP", "setting": "[1]; Peripheral, time 3′, Baseline 118 ± 8", "result": "115 ± 7", "unit": "mmHg"}, {"measurement": "HR", "setting": "[1]; Peripheral, time 3′, Baseline 165 ± 10", "result": "165 ± 9"}, {"measurement": "APV", "setting": "[1]; Peripheral, time 4′, Baseline 33 ± 3", "result": "31 ± 3"}, {"measurement": "MAP", "setting": "[1]; Peripheral, time 4′, Baseline 118 ± 8", "result": "119 ± 8", "unit": "mmHg"}, {"measurement": "HR", "setting": "[1]; Peripheral, time 4′, Baseline 165 ± 10", "result": "160 ± 9"}, {"measurement": "APV", "setting": "[1]; Peripheral, time 5′, Baseline 33 ± 3", "result": "30 ± 2"}, {"measurement": "MAP", "setting": "[1]; Peripheral, time 5′, Baseline 118 ± 8", "result": "121 ± 7", "unit": "mmHg"}, {"measurement": "HR", "setting": "[1]; Peripheral, time 5′, Baseline 165 ± 10", "result": "158 ± 10"}, {"measurement": "APV", "setting": "[1]; Peripheral, time 10″, Baseline 33 ± 3", "result": "62 ± 9"}, {"measurement": "MAP", "setting": "[1]; Peripheral, time 10″, Baseline 118 ± 8", "result": "107 ± 9", "unit": "mmHg"}, {"measurement": "HR", "setting": "[1]; Peripheral, time 10″, Baseline 165 ± 10", "result": "171 ± 6"}, {"measurement": "APV", "setting": "[1]; Peripheral, time 20″, Baseline 33 ± 3", "result": "76 ± 10"}, {"measurement": "MAP", "setting": "[1]; Peripheral, time 20″, Baseline 118 ± 8", "result": "85 ± 9", "unit": "mmHg"}, {"measurement": "HR", "setting": "[1]; Peripheral, time 20″, Baseline 165 ± 10", "result": "162 ± 15"}, {"measurement": "APV", "setting": "[1]; Peripheral, time 30″, Baseline 33 ± 3", "result": "59 ± 11"}, {"measurement": "MAP", "setting": "[1]; Peripheral, time 30″, Baseline 118 ± 8", "result": "87 ± 9", "unit": "mmHg"}, {"measurement": "HR", "setting": "[1]; Peripheral, time 30″, Baseline 165 ± 10", "result": "168 ± 9"}, {"measurement": "duration of >2-fold increase in coronary APV", "setting": "[1]; [3]", "result": "< 20", "unit": "s"}, {"measurement": "time for all parameters to return to baseline post injection", "setting": "[1]; [3]", "result": "≤ 10", "unit": "min"}, {"measurement": "Coronary, maximal folds increase in average peak velocity (APVmax/APVbaseline)", "setting": "[1]; anesthetized dogs", "result": "2.5 ± 0.3", "unit": "fold"}, {"measurement": "Peripheral, maximal folds increase in average peak velocity (APVmax/APVbaseline)", "setting": "[1]; anesthetized dogs", "result": "2.0 ± 0.4", "unit": "fold"}, {"measurement": "Coronary, maximal folds increase in average peak velocity (APVmax/APVbaseline)", "setting": "[1]; [4]", "result": "2.5±0.3", "unit": "fold"}, {"measurement": "Peripheral, maximal folds increase in average peak velocity (APVmax/APVbaseline)", "setting": "[1]; [4]", "result": "2.0±0.4", "unit": "fold"}, {"measurement": "duration of the effect on coronary conductance (rank among agonists)", "setting": "[2]; isolated rat hearts, FIG. 10", "result": "shortest"}, {"measurement": "t0.5, time to 50% reversal of the increase in coronary conductance", "setting": "[2]; rat isolated perfused heart", "result": "1.6 ± 0.1", "unit": "min"}, {"measurement": "t0.9, time to 90% reversal of the increase in coronary conductance", "setting": "[2]; rat isolated perfused heart", "result": "5.6 ± 0.8", "unit": "min"}]}
